In patent US20240190866A1, “POLYHYDROXYLATED INDOLIZIDINE AND PYRROLIZIDINE DERIVATIVES AND USES THEREOF” (Academia Sinica, priority 2021, published 2024):
Read-outs that look alike come from different tables or passages of the source.

What was measured:
[1] = biological target: human lysosomal α-mannosidase (α-hLM) (Homo sapiens (Human), UniProt O00754); assay: α-Mannosidase (α-hLM) activity assay, 4-MU-α-D-mannopyranoside substrate; assay type: biochemical; conditions: pH 4.6, 37° C., 1 h
Protocol: (§1) Compounds were diluted to give the final concentration of 100 μM and mixed with 4-MU-α-D-mannopyranoside as substrate and human Golgi α-mannosidase II in phosphate buffer (0.1 M Sodium phosphate dibasic, pH 7.0) or human lysosomal α-mannosidase in citric phosphate buffer (0.1 M Sodium phosphate monobasic monohydrate, 0.5 mM citric acid monohydrate, pH 4.6). The assay was carried out at 37° C. for a certain time (1 h for α-hLM, 2 h for α-hGMII). Stop solution (0.5 M K2CO3(aq), pH 10.8) was then added to the reactions and the fluorescence was determined at 355 nm excitation and 460 nm emission (SpectraMax M5, Molecular Devices). Inhibition was performed as relative enzyme activity to control. The active compounds were selected for libraries preparation and further tested at lower concentration to determine their IC50 values. The assays performed in 384-wells of the microtiter plates.

[2] = biological target: human Golgi α-mannosidase II (α-hGMII) (Homo sapiens (Human), UniProt Q16706); assay: Golgi α-mannosidase II (α-hGMII) activity assay, 4-MU-α-D-mannopyranoside substrate; assay type: biochemical; conditions: for IC50: pH 7.0, 37° C., 2 h; for Selectivity Index (SI): selectivity toward α-hGMII than α-hLM
Chain of human Golgi α-mannosidase II (α-hGMII) (Q16706 whole entry): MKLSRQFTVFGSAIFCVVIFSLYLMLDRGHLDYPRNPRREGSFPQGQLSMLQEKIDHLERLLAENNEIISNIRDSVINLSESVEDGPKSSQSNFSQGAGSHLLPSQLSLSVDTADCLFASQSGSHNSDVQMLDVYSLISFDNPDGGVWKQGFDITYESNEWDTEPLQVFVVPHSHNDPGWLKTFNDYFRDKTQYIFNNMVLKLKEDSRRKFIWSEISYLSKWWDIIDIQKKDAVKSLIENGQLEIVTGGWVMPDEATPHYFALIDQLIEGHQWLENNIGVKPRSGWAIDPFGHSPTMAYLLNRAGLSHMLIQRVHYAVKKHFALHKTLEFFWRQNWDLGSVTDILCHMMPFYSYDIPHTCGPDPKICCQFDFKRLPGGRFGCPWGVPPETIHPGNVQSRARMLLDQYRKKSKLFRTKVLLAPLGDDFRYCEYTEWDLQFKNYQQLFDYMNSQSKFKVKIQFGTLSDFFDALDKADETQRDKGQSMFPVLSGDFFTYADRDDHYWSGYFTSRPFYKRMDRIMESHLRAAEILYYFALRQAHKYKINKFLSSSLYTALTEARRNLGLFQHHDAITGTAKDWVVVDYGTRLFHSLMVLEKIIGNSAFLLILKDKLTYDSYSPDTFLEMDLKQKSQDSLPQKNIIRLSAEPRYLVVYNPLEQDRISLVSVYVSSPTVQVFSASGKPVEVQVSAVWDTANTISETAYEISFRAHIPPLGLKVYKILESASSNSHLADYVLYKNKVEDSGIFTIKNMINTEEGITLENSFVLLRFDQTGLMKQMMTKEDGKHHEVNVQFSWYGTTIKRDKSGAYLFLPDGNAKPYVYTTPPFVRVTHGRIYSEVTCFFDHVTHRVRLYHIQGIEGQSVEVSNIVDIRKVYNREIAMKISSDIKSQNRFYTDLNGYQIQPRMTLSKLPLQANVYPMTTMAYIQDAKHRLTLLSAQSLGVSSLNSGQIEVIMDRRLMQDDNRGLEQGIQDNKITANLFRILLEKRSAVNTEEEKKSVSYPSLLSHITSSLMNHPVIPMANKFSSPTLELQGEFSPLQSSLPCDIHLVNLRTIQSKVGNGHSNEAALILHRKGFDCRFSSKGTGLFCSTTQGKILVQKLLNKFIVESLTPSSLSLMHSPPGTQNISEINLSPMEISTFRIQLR
Protocol: as §1

Huh7 xenograft tumors = assay: Human hepatocarcinoma (HCC) Huh7 cells xenograft animal model; assay type: in vivo, NOD-SCID mice; conditions: 30 mg/kg i.p., twice a week
Description: A total of 34 NOD-SCID mice to (5- to 6-week-old) were maintained in micro-isolator units on a standard laboratory diet. Animals were housed under humidity- and temperature-controlled conditions and the light/dark cycle was set at 12-hour intervals, maintained under specified and opportunistic pathogen-free conditions. Mice were quarantined at least 1 week before experimental manipulation
HCC xenografts were established in 5-6 weeks old NOD-SCID mice by subcutaneous inoculation of about 5×10^6 Huh7 cells suspended in 50 μL PBS+50 μL, Matrigel (Corning, 394230) in the left and right flanks of each mouse. After one week of inoculation, tumors were palpable and the mice were assigned randomly to 1 of 4 treatment groups. Group 1 (vehicle control group, n=6) mice only received a vehicle solution containing Kolliphor EL (Sigma Aldrich, C5135), 99.9% ethanol and water in a ratio of 1:1:6. Groups 2, 3, 4 and 5 mice were intraperitoneally injected with the test compound (e.g., compound ACK900, ACK901, or ACK902) (30 mg/kg, ip, n=7/group) or sorafenib (30 mg/kg, ip, n=6/group), twice per week for 25 days. The tumor volume was calculated by the formula of a ratioinal ellipsoid: [0.5236×short axis) m1^2×(long axis)m^2], and the tumor volume was measured twice per week. All mice were sacrificed at 27 days after the treatment started. Tumor tissues were isolated, photographed and weighted. […]

[3] = Serum biochemistry assay in Huh7 xenograft mice; assay type: in vivo, NOD-SCID mice; conditions: 30 mg/kg i.p., twice a week; for ALT / AST / BUN / CRE / TBIL: serum
Protocol: All blood specimens were collected in tubes and were left at 25° C. for 30 min to clot and centrifuged for 10 min at 1200 g. The concentrations of the following biochemical serum analytes collected were measured with FUJI DRI-CHEM 500i analyzer (FUJIFILM Corp., Tokyo, Japan) using the manufacturer's reagents and according to the manufacturer's instructions: Alanine Aminotransferase ALT), Aspartate Aminotransferase (AST), Blood Urea Nitrogen (BUN), Creatinine (CRE) and Total Bilirubin (TBIL).
HCC xenografts were established in 5-6 weeks old NOD-SCID mice by subcutaneous inoculation of about 5×10^6 Huh7 cells suspended in 50 μL PBS+50 μL, Matrigel (Corning, 394230) in the left and right flanks of each mouse. After one week of inoculation, tumors were palpable and the mice were assigned randomly to 1 of 4 treatment groups. Group 1 (vehicle control group, n=6) mice only received a vehicle solution containing Kolliphor EL (Sigma Aldrich, C5135), 99.9% ethanol and water in a ratio of 1:1:6. Groups 2, 3, 4 and 5 mice were intraperitoneally injected with the test compound (e.g., compound ACK900, ACK901, or ACK902) (30 mg/kg, ip, n=7/group) or sorafenib (30 mg/kg, ip, n=6/group), twice per week for 25 days. The tumor volume was calculated by the formula of a ratioinal ellipsoid: [0.5236×short axis) m1^2×(long axis)m^2], and the tumor volume was measured twice per week. All mice were sacrificed at 27 days after the treatment started. Tumor tissues were isolated, photographed and weighted.
In vivo tumor growth inhibition studies in human Huh7 xenograft rodents were performed in accordance with procedures as described in the “Material and Method” section. Xenograft tumors were generated by implanting Huh7 cells (5×10^6) subcutaneously into the left and right flanks of each NOD-SCID mouse. Starting on the 7th day after the inoculation of Huh7 cells, the mice were injected with ACK900, ACK901, ACK902 or sorafenib intraperitoneally (i.p.) at a dose of 30 mg/kg and twice a week for 34 days.

HepG2 cells [4] = conditions: Data from Int. J. Med. Sci. 2017, 14, 523; cited from earlier work
Huh7 cells [5] = conditions: Data from Int. J. Med. Sci. 2017, 14, 523; cited from earlier work
MDA-MB-231 cells = assay: Anti-proliferative activity assay (CellTiter-Glo); assay type: cell-based, human
Protocol: (§2) Human liver cancer HepG2 cells and Huh7 cells, breast cancer MDA-MB-231 cells, pancreatic cancer PANC-1 cells, and non-small cell lung (NSCL) cancer H1975 cells were maintained in Dulbecco's Modified Eagle Medium supplemented containing 10% fetal bovine serum (FBS), 100 units/ml penicillin and […] streptomycin in 37° C. incubator with 5% CO2.
(§3) Anti-proliferative activity of HepG2, Huh7 or PANC-1 cells was determined by 3-(4,5-dimethylthiazol-2-yl)-2,5-diphenyltetrazolium bromide (MTT) assay, while that of H1975 or MDA-MB-231 cells was determined by luminescent assay with the aid of commercial kit CellTiter-Glo® (Promega).
(§4) For H1975 and MDA-MB-231, cells were respectively seeded at 5×10^3 cells/well in 96-well plates and maintained for 14-16 hours. Cells were treated with dimethylsulfoxide (DMSO) or test compounds in varied concentrations for 48 h. Cell viability was monitored using Cell-TiterGlo (Promega), a kit that measures the quantity of ATP present in the cell culture, an indicator of metabolically active cells. The IC50 values of death cell lines were calculated accordingly.

HepG2 cells [6] = assay: Anti-proliferative activity assay (MTT); assay type: cell-based, human; conditions: 72 h
Protocol: as §2, §3
(§5) Cancer cells including HepG2, Huh7 and PANC-1 cells were respectively seeded at 10^4, 4×10^3, and 5×10^3 cells/well in 96-well plates and maintained for 14-16 hours. Cells were treated with dimethylsulfoxide (DMSO) or test compounds in varied concentrations for 72 h. Cells were then washed with PBS twice, added a medium containing 3-(4,5-dimethylthiazol-2-yl)-2,5-diphenyltetrazolium bromide (MTT) at a final concentration of 0.5 mg/mL, and incubated for 4 h at 37° C. in a humidified incubator containing 5% CO2 in air. Cells having functional succinate dehydrogenase of mithchondria would convert MTT to formazan. Then, the medium was replaced with 100 μL of DMSO for 30 min at room temperature, and the 96-well plate was read by an ELISA reader at 550 nm to get the absorbance density values. The IC50 values of death cell lines were calculated accordingly.

Huh7 cells [7] = assay: Anti-proliferative activity assay (MTT); assay type: cell-based, human; conditions: 72 h
Protocol: as §2, §3, §5

PANC-1 cells [8] = assay: Anti-proliferative activity assay (MTT); assay type: cell-based, human; conditions: 72 h
Protocol: as §2, §3, §5

H1975 cells = assay: Anti-proliferative activity assay (CellTiter-Glo); assay type: cell-based, human; conditions: 48 h
Protocol: as §2, §3, §4

[9] = tested on: all cancer cell lines (HepG2, Huh7, PANC-1, H1975, MDA-MB-231); assay: Anti-proliferative activity, pooled statement over all cancer cell lines; assay type: cell-based, human; conditions: read-out: half maximum inhibitory concentration (IC50), range in all cancer cell lines
Protocol: as §3, §5, §4

Huh7 cells [10] = assay: Transwell migration assay; assay type: cell-based, human; conditions: 18 hours
Protocol: (§6) Chemotaxis experiments with human HepG2Huh7, or PANC-1 cells were assayed by using transwells (Millipore). The cells to be analyzed (5×10^4 cells/well) were seeded in the upper chambers of the 24-well plate in 400 μL serum-free medium. FBS (10%) was used as the chemoattractant with or without different concentrations of the test compound (e.g., ACK900, ACK901, ACK902) in the lower chamber, and the plate was incubated under standard conditions. After incubation for 18 hours, the media in the upper chambers were aspirated and washed with phosphate-buffered saline (PBS) twice. Both non-migrated and migrated cells were fixed with 4% paraformaldehyde (PFA) for 30 minutes at room temperature, stained with 2% crystal violet solution. The non-invading cells were removed from the upper surface of the insert membrane with a cotton swab. The images were taken using an imaging reader (Cytation 5, BioTek, VT, U.S.A.) and analyzed using NIH ImageJ software. Percent in the results represent percent of initial number of cells in the migrating and nonmigrating Cell fractions.

PANC-1 cells [11] = assay: Transwell migration assay; assay type: cell-based, human; conditions: PANC-1, transwell, 18 hours
Protocol: as §6

Huh7 cells [12] = assay: Transwell invasion assay; assay type: cell-based, human
Protocol: as §6

PANC-1 cells [13] = assay: Transwell invasion assay; assay type: cell-based, human; conditions: PANC-1, transwell
Protocol: as §6

Chain of human lysosomal α-mannosidase (α-hLM) (O00754 50-1011): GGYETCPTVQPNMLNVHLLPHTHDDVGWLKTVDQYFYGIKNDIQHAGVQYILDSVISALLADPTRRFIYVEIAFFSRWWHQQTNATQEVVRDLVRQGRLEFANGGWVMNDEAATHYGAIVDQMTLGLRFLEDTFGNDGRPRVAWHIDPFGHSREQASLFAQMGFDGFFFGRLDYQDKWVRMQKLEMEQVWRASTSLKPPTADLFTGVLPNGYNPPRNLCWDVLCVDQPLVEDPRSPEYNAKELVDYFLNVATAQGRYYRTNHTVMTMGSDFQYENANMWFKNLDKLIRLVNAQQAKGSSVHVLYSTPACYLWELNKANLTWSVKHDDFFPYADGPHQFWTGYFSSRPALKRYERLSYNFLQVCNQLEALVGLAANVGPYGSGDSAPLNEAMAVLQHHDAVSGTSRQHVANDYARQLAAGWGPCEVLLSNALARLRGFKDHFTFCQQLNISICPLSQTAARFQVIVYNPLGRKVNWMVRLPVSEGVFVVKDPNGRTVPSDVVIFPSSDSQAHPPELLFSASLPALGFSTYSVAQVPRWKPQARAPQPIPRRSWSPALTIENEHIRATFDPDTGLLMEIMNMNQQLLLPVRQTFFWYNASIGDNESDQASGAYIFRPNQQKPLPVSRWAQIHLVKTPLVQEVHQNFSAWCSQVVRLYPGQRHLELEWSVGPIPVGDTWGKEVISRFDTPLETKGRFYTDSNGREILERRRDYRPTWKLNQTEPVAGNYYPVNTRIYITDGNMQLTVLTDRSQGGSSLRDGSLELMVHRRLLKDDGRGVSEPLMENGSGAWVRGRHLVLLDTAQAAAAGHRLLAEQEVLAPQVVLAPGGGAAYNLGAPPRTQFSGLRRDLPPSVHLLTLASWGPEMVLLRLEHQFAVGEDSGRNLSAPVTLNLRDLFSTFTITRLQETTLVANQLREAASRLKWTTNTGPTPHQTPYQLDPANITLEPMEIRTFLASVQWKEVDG

Structure (SMILES)	IC50 [1] [nM]	IC50 [2] [nM]	Selectivity Index (SI) [2]	ALT [3] [U/L]	AST [3] [U/L]	BUN [3] [mg/dL]	CRE [3] [mg/dL]	TBIL [3] [mg/dL]	also measured
O[C@@H]1[C@H](O)[C@@H](CNC(=S)Nc2ccccc2)N2CCC[C@@H](O)[C@H]12 [ACK905]	1500	1300	1.1	–	–	–	–	–	–
CNC(=O)c1cc(Oc2ccc(NC(=O)Nc3ccc(Cl)c(C(F)(F)F)c3)cc2)ccn1 [Sorafenib, sorafenib, reference compound]	–	–	–	61.33 ± 54.45	135.33 ± 90.76	23 ± 2.53	0.35 ± 0.19	0.73 ± 0.32	signs of harm or decreased body weight (Huh7 xenograft tumors): none of the mice injected with ACK900-ACK902 or sorafenib exhibited signs of harm or decreased body weight; tumor volume vs control (Huh7 xenograft tumors; P<0.05): Significant reduction; serious side effects including hepatoxicity and nephrotoxicity [3]: no serious side effects including hepatoxicity and nephrotoxicity were observed; IC50 (HepG2 cells [4]): 7420 nM; IC50 (Huh7 cells [5]): 5970 nM
COc1ccc(NC(=S)NC[C@@H]2[C@@H](O)[C@@H](O)[C@H]3[C@H](O)CCCN32)cc1 [ACK904]	950	800	1.2	–	–	–	–	–	–
COc1cccc2c1C(=O)c1c(O)c3c(c(O)c1C2=O)C[C@@](O)(C(=O)CO)C[C@@H]3O[C@H]1C[C@H](N)[C@H](O)[C@H](C)O1 [Doxorubicin, doxorubicin, reference compound]	–	–	–	–	–	–	–	–	IC50 (MDA-MB-231 cells; Homo sapiens, MDA-MB-231, 48 h): 1300 to 3000 nM
CCCCCC[C@H]1CC[C@H](c2ccc(NC(=S)NC[C@@H]3[C@@H](O)[C@@H](O)[C@H]4[C@H](O)CCCN43)cc2)CC1 [ACK901]	21500	1000	–	74.85 ± 82.13	173.85 ± 95.67	21.87 ± 3.77	0.47 ± 0.18	0.64 ± 0.37	IC50 (HepG2 cells [6]): 1800 nM; IC50 (Huh7 cells [7]): 1300 nM; IC50 (PANC-1 cells [8]): 300 nM; IC50 (H1975 cells): 7700 nM; IC50 (MDA-MB-231 cells; 48 h): 1000 nM; IC50 [9]: 300 to 19100 nM; migratory capability (Huh7 cells [10]): remarkably decreased; migratory capability (PANC-1 cells [11]): remarkably decreased; invasive capability (Huh7 cells [12]): remarkably decreased; invasive capability (PANC-1 cells [13]): remarkably decreased
O=C(NC[C@@H]1[C@@H](O)[C@@H](O)[C@H]2[C@H](O)CCCN21)c1ccc(-c2ccccc2)cc1 [ACK903]	650	190	3.4	–	–	–	–	–	–
CCC[C@H]1CC[C@H](c2ccc(C(=O)NC[C@@H]3[C@@H](O)[C@@H](O)[C@H]4[C@H](O)CCCN43)cc2)CC1 [ACK902]	6800	1600	4.3	64.42 ± 57.49	250 ± 182.44	23.87 ± 4.30	0.43 ± 0.11	0.9 ± 0.56	IC50 (HepG2 cells [6]): 14500 nM; IC50 (Huh7 cells [7]): 3700 nM; IC50 (PANC-1 cells [8]): 1600 nM; IC50 (H1975 cells): 11500 nM; IC50 (MDA-MB-231 cells; 48 h): 9900 nM; IC50 [9]: 300 to 19100 nM; migratory capability (Huh7 cells [10]): remarkably decreased; migratory capability (PANC-1 cells [11]): remarkably decreased; invasive capability (Huh7 cells [12]): remarkably decreased; invasive capability (PANC-1 cells [13]): remarkably decreased
O[C@H]1[C@H]2[C@H](O)CCCN2C[C@H]1O [Swainsonine, swainsonine, reference compound]	–	40	2	–	–	–	–	–	–
